Laboratory results taken from patent US10507247B2, “Optical probes for matrix metalloproteinases” (The University Court of the University of Edinburgh, priority 2015, dated 2019).
Primed or numbered codes have the meaning given here. Where no end group is shown, it is not given here. [ ]: non-standard residue; d: D form. The star is where a group is joined. 5FAM = O=C1OC2(c3ccc(O)cc3Oc3cc(O)ccc32)c2ccc(C(=O)*)cc21; PEG2′ = PEG spacer unit (glycol linker); Nle = CCCC[C@H](N)C(=O)O; Ahx = NCCCCCC(=O)O; βAla = NCCC(=O)O

Experiments:
MMP [1] = experiment: Probe specificity by target inhibition (FIG. 9); assay type: biochemical, human; conditions: probe 1 μM, 30 min, inhibitor 200 nM
Protocol: Probe specificity by target inhibition for probes A and probe B. Data represents the fluorescence signal provided by the probe (1 μM) after 30 min using a multiwell plate fluorimeter at excitation/emission 485/528 nm. To validate the specificity and ability of molecular probe to detect the target enzyme, probe fluorescence (initiated by cleavage) was measured in the presence of enzyme with/without inhibitor.
The enzyme assays were run in a 384-well format on a PCR opaque microplate (Thermo Scientific). All dilutions and reactions were prepared in MMP buffer (50 mM Tris, 10 mM CaCl2, 0.15M NaCl, 0.05% Brij-35, pH 7). Proteolytic activity was determined by calculating the fold change in fluorescence over background signal provided by the corresponding dilution of the probe and/or inhibitors with exogenous enzymes using a-multiwell plate fluorimeter (Synergy H1 Hybrid Reader, BioTek instruments Ltd) at excitation/emission 485/528 nm. Recombinant human MMPs (Catalytic domain MMP-1, -2, -3, -7, -8, -9, -10, -11, -12, -13 (Enzo Life Sciences) and Full-length MMP-2, -9, -12 and -13 (Merck/Millipore)) were used at 30 nM. Pro-MMP-13 (R & D Systems) was activated by incubating with 1 mM 4-aminophenylmercunc acetate (APMA) for 2 hrs at 37° C. […] For inhibition assays, enzyme and inhibitor were pre-incubated for 1 hr at 37° C. before the addition of molecular probe.

MMP [2] = experiment: Activation of probe variants by MMP in vitro; assay type: biochemical
Protocol: The selectivity of the probes, together with further probes AMF-14b, SVC-030 (both defined in Table 6 below) and SVC-068 (defined in Table 4 below), to detect MMP over elastase, another proteinase relevant in lung disease, was tested and the results for all probes are shown in FIG. 2.
Variants consisting of D-amino acids at the recognition site sequence with or without blocking PEG units were also synthesised and assessed.
(§1) The enzyme assays were run in a 384-well format on a PCR opaque microplate (Thermo Scientific). All dilutions and reactions were prepared in MMP buffer (50 mM Tris, 10 mM CaCl2, 0.15M NaCl, 0.05% Brij-35, pH 7). Proteolytic activity was determined by calculating the fold change in fluorescence over background signal provided by the corresponding dilution of the probe and/or inhibitors with exogenous enzymes using a-multiwell plate fluorimeter (Synergy H1 Hybrid Reader, BioTek instruments Ltd) at excitation/emission 485/528 nm. Recombinant human MMPs (Catalytic domain MMP-1, -2, -3, -7, -8, -9, -10, -11, -12, -13 (Enzo Life Sciences) and Full-length MMP-2, -9, -12 and -13 (Merck/Millipore)) were used at 30 nM. Pro-MMP-13 (R & D Systems) was activated by incubating with 1 mM 4-aminophenylmercunc acetate (APMA) for 2 hrs at 37° C. Human neutrophil elastase (Elastase Product Company, used at 2.5 ug/ml), neutrophil lysate (lysed human neutrophils), and recombinant human Thrombin (Sigma-Aldrich, used at 5 U/ml), Plasmin (Sigma-Aldrich, used at 30 nM) and Factor Xa (Sigma-Aldrich, used at 0.5 μM) were used to identify the lead molecular probe sequences. For inhibition assays, enzyme and inhibitor were pre-incubated for 1 hr at 37° C. before the addition of molecular probe.

MMP-13 [3] = experiment: Enzyme assay, fold change in probe fluorescence over background with MMP-13; assay type: biochemical, human; conditions: different probe scaffolds (monomer, dendrimers); MMP-13 52 kDa
Protocol: (§2) Enzyme specificity of the lead probes with exogenous enzymes was tested using a multiwell plate fluorimeter at excitation/emission 485/528 nm (Table 3). Recombinant human catalytic domain MMPs-1, -2, -3, -7, -8, -9, -10, -11, -12, -13 were used at 30 nM. Cleavage site for each sequence is indicated in italics.
(§3) The different compounds were also evaluated according to the fold change in fluorescent signal in presence of MMP-9 and MMP-13, and the results are shown in Table 7. From this comparison, the FRET dendrimers comprising SEQ ID NO.1 and SEQ ID NO.7 (AMF-106 and SVC-186) together with the 9Dendrimer comprising SEQ ID NO.7 (SVC-196) were chosen for further evaluation. These dendrimers are shown in FIG. 7, probe A (AMF-106), probe B (SVC-186) and probe C (SVC-196).
as §1

MMP-9 = experiment: Enzyme assay, fold change in probe fluorescence over background with MMP-9; assay type: biochemical, human; conditions: different probe scaffolds (monomer, dendrimers); MMP-9 83 kDa
Protocol: A library of probes (listed in Table 2 below) containing FAM (Carboxyfluorescein) as the fluorophore (donor) and MethylRed (MR) as the quencher (acceptor) and a variety of peptide sequences was synthesized by manual standard solid-phase Fmoc peptide chemistry (described below).
as §2, §3, §1

[4] = tested on: MMPs-1, -2, -3, -7, -8, -9, -10, -11, -12, -13, Thrombin, Plasmin and Factor Xa; experiment: Enzyme specificity of the FRET branched probes with exogenous enzymes (FIG. 8); assay type: biochemical, human; conditions: probe 10 μM; for selectivity for MMP-2/9: MMPs 30 nM, Thrombin 5 U/ml, Plasmin 30 nM, Factor Xa 0.5 μM
Protocol: (§4) FIG. 8. Enzyme specificity of the FRET branched probes A, B and C. Data represents the average fold change in fluorescence over background signal provided by probe (10 μM) with exogenous enzymes using a multiwell plate fluorimeter (Synergy H1 Hybrid Reader, BioTek instruments Ltd) at excitation/emission 485/528 nm. Recombinant human catalytic domain MMPs-1, -2, -3, -7, -8, -9, -10, -11, -12, -13 were used at 30 nM. Recombinant human Thrombin, Plasmin and Factor Xa were used at 5 U/ml, 30 nM, 0.5 μM, respectively.
(§5) Three selected probes (A: AMF-106, B: SVC-186 B, and C: SVC-196) were evaluated in vitro in a new experiment including other members of the MMP family (MMPs-1, -2, -3, -7, -8, -9, -10, -11, -12, -13) as well as Thrombin, Plasmin and Factor Xa, and the results are shown in FIG. 8. […] The plasmin cleavage site was identified and attempts to make a resistant version replacing with D-aa in these positions were unsuccessful.
as §1

plasmin [5] = molecular target: T1, plasmin (Homo sapiens, UniProt P00747); experiment: Susceptibility / stability of probes to plasmin; assay type: biochemical
T1 construct: purchased Sigma-Aldrich
T1 sequence (P00747 581-810 limits assumed): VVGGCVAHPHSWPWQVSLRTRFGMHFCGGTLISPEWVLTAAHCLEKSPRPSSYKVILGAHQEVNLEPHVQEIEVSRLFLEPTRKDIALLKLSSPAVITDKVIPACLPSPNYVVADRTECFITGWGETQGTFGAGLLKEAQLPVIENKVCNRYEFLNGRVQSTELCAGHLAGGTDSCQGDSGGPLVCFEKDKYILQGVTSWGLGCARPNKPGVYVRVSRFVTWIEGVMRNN
T1 sequence (P00747 97-580 partner limits assumed): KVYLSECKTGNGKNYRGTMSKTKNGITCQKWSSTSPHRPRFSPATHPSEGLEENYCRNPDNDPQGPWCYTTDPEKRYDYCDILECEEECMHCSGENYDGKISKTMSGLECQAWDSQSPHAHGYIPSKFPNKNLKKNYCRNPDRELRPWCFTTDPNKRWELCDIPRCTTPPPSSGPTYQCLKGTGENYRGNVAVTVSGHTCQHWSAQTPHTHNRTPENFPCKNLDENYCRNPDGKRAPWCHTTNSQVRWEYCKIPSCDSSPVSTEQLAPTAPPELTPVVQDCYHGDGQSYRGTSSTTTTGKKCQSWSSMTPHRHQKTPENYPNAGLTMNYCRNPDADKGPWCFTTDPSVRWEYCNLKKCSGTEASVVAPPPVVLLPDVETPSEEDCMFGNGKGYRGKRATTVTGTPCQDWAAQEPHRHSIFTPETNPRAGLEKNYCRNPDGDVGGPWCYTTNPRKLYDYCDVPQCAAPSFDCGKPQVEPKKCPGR
Protocol: as §4
Also, to reduce degradation without altering the amino acid constituents we have synthesised variants including PEG units at the amino and/or carboxy termini in order to block degradation from the ends of the peptide sequence.
as §5
as §1, with “Human neutrophil elastase (Elastase Product Company, used at 2.5 ug/ml), neutrophil lysate (lysed human neutrophils), and recombinant human Thrombin (Sigma-Aldrich, used at 5 U/ml), Plasmin (Sigma-Aldrich, used at 30 nM) and Factor Xa (Sigma-Aldrich, used at 0.5 μM) were used to identify the lead molecular probe sequences. For inhibition assays, enzyme and inhibitor were pre-incubated for 1 hr at 37° C. before the addition of molecular probe.” left out

plasmin [6] = molecular target: T1, plasmin; experiment: Enzyme kinetics of the molecular probe, plasmin; assay type: biochemical
Protocol: (§6) Enzyme kinetics of the molecular probe specificity to human MMP-2, MMP-9, MMP-13 and plasmin. The kinetic constants KM and Vmax were calculated for probe A and B (Table 8 below).
as §1, with “For inhibition assays, enzyme and inhibitor were pre-incubated for 1 hr at 37° C. before the addition of molecular probe.” left out

MMP-13 [7] = molecular target: MMP-13 (Homo sapiens, UniProt P45452); experiment: Enzyme kinetics of the molecular probe, MMP-13; assay type: biochemical
Protocol: as §6
as §1, with “For inhibition assays, enzyme and inhibitor were pre-incubated for 1 hr at 37° C. before the addition of molecular probe.” left out

human MMP-9 = human MMP-9 (Homo sapiens, UniProt P14780); experiment: Enzyme kinetics of the molecular probe, MMP-9; assay type: biochemical
Sequence of human MMP-9 (P14780 94-707): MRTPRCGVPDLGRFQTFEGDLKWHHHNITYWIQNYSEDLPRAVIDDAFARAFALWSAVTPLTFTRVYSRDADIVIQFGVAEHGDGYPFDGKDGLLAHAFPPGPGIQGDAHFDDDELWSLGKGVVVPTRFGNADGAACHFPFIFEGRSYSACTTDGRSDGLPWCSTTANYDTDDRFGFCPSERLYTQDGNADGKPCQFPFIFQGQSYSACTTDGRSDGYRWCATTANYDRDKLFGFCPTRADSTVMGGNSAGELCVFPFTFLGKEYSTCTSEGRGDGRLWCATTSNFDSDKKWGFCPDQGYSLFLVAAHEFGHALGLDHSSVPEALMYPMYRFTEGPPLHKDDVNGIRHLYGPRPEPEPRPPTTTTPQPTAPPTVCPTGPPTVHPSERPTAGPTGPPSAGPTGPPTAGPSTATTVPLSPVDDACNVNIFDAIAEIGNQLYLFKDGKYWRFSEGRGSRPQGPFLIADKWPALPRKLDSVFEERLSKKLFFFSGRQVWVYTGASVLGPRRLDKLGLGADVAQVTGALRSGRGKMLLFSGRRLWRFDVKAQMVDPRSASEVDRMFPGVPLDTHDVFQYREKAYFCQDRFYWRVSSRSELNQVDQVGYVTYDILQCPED
Protocol: as §6
as §1, with “For inhibition assays, enzyme and inhibitor were pre-incubated for 1 hr at 37° C. before the addition of molecular probe.” left out

human MMP-2 = molecular target: T2, human MMP-2 (Homo sapiens, UniProt P08253); experiment: Enzyme kinetics of the molecular probe, MMP-2; assay type: biochemical
T2 sequence (P08253 110-660): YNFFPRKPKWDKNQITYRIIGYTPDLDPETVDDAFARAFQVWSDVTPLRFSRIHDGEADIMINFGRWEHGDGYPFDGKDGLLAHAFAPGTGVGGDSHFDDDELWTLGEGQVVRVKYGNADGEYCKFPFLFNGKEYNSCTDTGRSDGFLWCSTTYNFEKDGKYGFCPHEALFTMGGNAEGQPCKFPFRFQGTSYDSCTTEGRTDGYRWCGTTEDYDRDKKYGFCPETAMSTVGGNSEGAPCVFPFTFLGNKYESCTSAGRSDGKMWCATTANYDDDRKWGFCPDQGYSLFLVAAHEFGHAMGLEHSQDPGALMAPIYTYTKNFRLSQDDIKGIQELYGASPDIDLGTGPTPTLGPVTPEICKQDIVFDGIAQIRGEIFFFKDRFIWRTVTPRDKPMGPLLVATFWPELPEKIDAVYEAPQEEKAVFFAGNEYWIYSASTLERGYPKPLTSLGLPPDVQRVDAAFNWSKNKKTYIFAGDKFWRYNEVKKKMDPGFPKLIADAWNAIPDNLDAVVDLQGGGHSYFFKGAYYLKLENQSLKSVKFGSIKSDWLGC
Protocol: as §6
as §1, with “For inhibition assays, enzyme and inhibitor were pre-incubated for 1 hr at 37° C. before the addition of molecular probe.” left out

For CNC(=O)[C@@H](NC(=O)[C@H](CC(C)C)[C@H](O)C(=O)NO)C(C)(C)C [Marimastat], the “fluorescent intensity of probes A and B after incubation of the enzyme with inhibitor” value (MMP [1]) was “significantly reduced”.

“Ac-PEG2-PFGNleKβA-K[K(FAM)2]-PEG2-k-PEG2-k-3 probe elements [SVC-01-198]” was tested, and the “intensity upon activation by MMP” value (MMP [2]) was “much lower intensity”.

With “FAM-Ahx-G-P-K-G-L-K-G-3 probe elements ({5FAM-Ahx}-GPKGLKG; also: three probe elements on a scaffold) [TWB140]” the “MMP-13 (52 kDa), fold change in fluorescent signal” value (“MMP-13 (52 kDa), fold change” below) (MMP-13 [3]) was 1.47 and the “MMP-9 (83 kDa), fold change in fluorescent signal” value (“MMP-9 (83 kDa), fold change” for short) (MMP-9) was 1.06.

In the case of “FAM-K(FAM)-PEG2-PFGNleKβA-K(FAM)-PEG2-k-PEG2-k-3 probe elements ({5FAM-K(FAM)-PEG2′}-PFG[Nle]K[βAla]-{K(FAM)-PEG2′-code k-PEG2′-code k}; also: three probe elements on a scaffold) [SVC-196]”, the “MMP-13 (52 kDa), fold change” value (MMP-13 [3]) was 11.80, the “signal-to-noise (fold change above the background)” value [4] was “lower signal-to-noise” and the “selectivity for MMP-2/9” value [4] was “poor selectivity”. For the same compound, the “MMP-9 (83 kDa), fold change” value (MMP-9) was 3.33.

For “FAM-K(FAM)-PEG2-PFGNleKβA-PEG2-k-PEG2-k-3 probe elements [SVC-189]”, the “MMP-13 (52 kDa), fold change” value (MMP-13 [3]) was 7.11 and the “MMP-9 (83 kDa), fold change” value (MMP-9) was 2.92.

With “FAM-PEG2-G-P-K-G-L-K-G-K(MR)-PEG2-k-PEG2-k-3 probe elements ({5FAM-PEG2′}-GPKGLKG; not fully specified (C-terminus); also: three probe elements on a scaffold) [AMF-106]” the “stability / susceptibility to plasmin” value (plasmin [5]) was “susceptible to plasmin”, the Km (plasmin [6]) was 0.36 µM and the “MMP-13 (52 kDa), fold change” value (MMP-13 [3]) was 34.52. For the same compound, the Km (MMP-13 [7]) was 0.22 µM, the “selectivity for MMP-2/9” value [4] was “better selectivity for MMP-2/9” and the Km (human MMP-9) was 0.53 µM. For the same compound, the “MMP-9 (83 kDa), fold change” value (MMP-9) was 11.20 and the Km (human MMP-2) was 0.06 µM.

For “FAM-PEG2-P-F-G-M(S = O)-K-βA-K(MR)-NH2 [SVC-068]”, the “recognition of the cleavable sequence by MMP” value (MMP [2]; FIG. 2) was “not recognised by MMP”.
